According to patent EP0765662A1, “HIV GROWTH INHIBITORY COMPOSITION” (Kochi, Mutsuyuki, priority 1994, dated 1995):
Counter-ions that a name gives are not always drawn.

What was measured:
Type in all cases: cell-based
[1] = Cytotoxicity of SBA, trypan blue dye-exclusion, A3.01 cells; settings: human, read-out: Rate of survival of the cells (%)
From the text: (§1) It is known that stimulation of HIV gene by TPA and tumor necrosis factor (TNF) can activate the HIV gene which is latent as the HIV-provirus within the T-cells as infected with HIV and said stimulation can thus strongly induce the progresses of sprouting and release of the viral particles of HIV. It is considered that said activation of the HIV gene for the occurrence or developement of HIV virus would be caused by such an oxidation stress which is brought about within the host cells by any stimulation given from outside the host cells as above-mentioned. Further, such discoveries and observations have been reported that NFkB, which is a nuclear factor wthin the cells, can play important part in the proliferation of HIV virus, and that the oxidation-reduction status of the NFkB is important for the activation of this factor NFkB, and so on. […] (a) Test of examining cytotoxicity of SBA against various kinds of T-cells A3.01 cells (HAT-susceptible CEM cell strain), A3.01 cells as infected with HIV, and the above-mentioned U1 cells were cultivated, respectively, in an improved RPM1-1640 media containing SBA added at different concentrations. After the cultivation, the number of the cells under test which still survived was determined under a polarizing microscope by a trypan blue dye-exclusion method.

[2] = Cytotoxicity of SBA, trypan blue dye-exclusion, U1 cells; settings: human, read-out: Rate of survival of the cells (%)
From the text: as §1

HIV = experiment: HIV-p24 antigen in culture supernatant of HIV-infected mitogen-derived blast cells of PBMC; settings: for Amount of HIV-p24 antigen: PHA-activated PBMC blast cells, culture supernatant
Description: The cytotoxicity of SBA against the A3.01 cells, at a high SBA concentration of 1000 µg of SBA/ml, was such that the rate of survival of said cells was about 70%. The above results of testing the cytotoxicity of SBA indicate that the cytotoxicity of SBA against the above various cells is fairly low. On the other hand, with the HIV-infected A3.01 cells, it is seen that the presence of SBA at concentrations in a range of from 500 to 800 µg of SBA/ml gives the rate of survival of the HIV-infected A3.01 cells at a level as low as 3-24%. […] (b) Tests of examining the inhibitory activities of SBA against infestion of HIV to mitogen-derived blast cells of human periphery blood monocytic cell (PBMC) and against proliferation of HIV in the HIV-infected blast cells of PMBC as well as against replication of the viral particles of HIV in the HIV-infected blast cells of PBMC, where HIV was made to infest the blast cells of PBMC of which the blastogenesis has been induced by a mitogen. Such blast cells of PBMC, which were blastogenetically transformed by activation with PHA […] as a mitogen, were cultivated and then made to be infested with HIV either by inoculation of HIV or by inoculation of HIV which had been pretreated with SBA. The HIV-infected cells so obtained continued further to be incubated in the culture media containing different concentrations of SBA. Then, the supernatant of the resulting cultures was separated, and the amount of the viral particles of HIV as released in the supernatant so obtained was measured. This measurement of the released amount of the viral particles of HIV was made by determining the amount of HIV-p24 antigen, i.e. a structural protein of HIV, existing in the supernatant, as a substitute index which can represent the amount of the viral particles of HIV so released in said supernatant.

HIV-1 (HTLV-IIIB strain) = experiment: Occurrence of HIV-1 positive cells in U1 cells with or without TPA stimulation (indirect fluorescent antibody technique); settings: for Rate (%) of occurrence of HIV-1 positive cells: U1 cells
Description: As the cell to be tested here for estimation of the occurrence of HIV in this Example, there were used such U1 cells which had been prepared by introducing 2 copies of the gene DNA of HIV-1 (HTLV-IIIB strain) into U937 cells (human monocytic blast-like cells, namely one sort of human T-cells). The U1 cell is an HIV potentially-infected T-cell wherein the HIV-1 gene is present merely as provirus.
The above-mentioned U1 cells were seeded and incubated in Costar 48-well-plates under such different conditions as indicated below. Thus, the U1 cells were seeded in a culture medium and were incubated in the presence of 5,6-O-benzylidene-L-ascorbic acid mono-sodium salt (hereinafter abbreviated as SBA) as incorporated at different concentrations by addition of SBA to the culture medium, or the U1 cells were incubated in the absence of SBA. The incubation of these U1 cells was further effected with such both two types of those U1 cells, namely with such one type of U1 cells which had been stimulated further by addition of TPA at various concentrations thereto, and with such another type of U1 cells which had not been stimulated by TPA.
When the U1 cells as stimulated by the addition of TPA were incubated, replication of the viral particles of HIV took place in considerable numbers of the U1 cells, resulting in the production of the HIV antigen within the cells, so that said cells thus became such HIV-positive cells which could sprout and release the viral particles of HIV therefrom. This replication of the viral particles of HIV can be detected by an indirect fluorescent antibody technique as illustrated below.
The U1 cells were thus incubated under the different conditions as explained in the above, including such a case where both SBA and TPA were not added; such a case where SBA was added, but TPA was not added; such a case where SBA was not added, but TPA was added; and such as case where both SBA and TPA were added, respectively. Then, the replication of the viral particles of HIV within the U1 cells, and the release of the viral particles of HIV from the U1 cells so incubated under the different conditions as above mentioned were detected by means of the indirect fluorescence technique in which there were employed a mouse monoclonal antibody having an anti-HIV-1 activity as a primary antibody and also employed an FITC-rabbit-originated […] as a secondary antibody. The number of the U1 cells which could be detected as the HIV-positive cells was calculated in term of percentage (%) on the basis of the total numbers of the U1 cells as subjected to the test, and it was expressed as the rate (%) of occurrence or appearance of the HIV-1 positive cells.

O=C1O[C@H]([C@@H]2COC(c3ccccc3)O2)C(O)=C1O (stereo partly drawn) [SBA, 5,6-O-benzylidene-L-ascorbic acid mono-sodium salt]
viability ([1]; SBA 100 µg/ml): 97% | viability ([1]; SBA 1000 µg/ml): ~70% | viability ([2]; SBA 100 µg/ml): 90% | viability ([2]; SBA 500 µg/ml): 100% | viability ([2]; SBA 800 µg/ml): 83% | viability ([2]; SBA 1000 µg/ml): 92% | inhibition of the replication of the viral particles of HIV (in words) (HIV; PBMC blast cells infected with the SBA-pretreated HIV, cultivated in the presence of SBA): no appreciable effect of SBA to inhibit the replication of the viral particles of HIV can be observed | Amount of HIV-p24 antigen (HIV; SBA 10 µg/ml, cells as infected with HIV): 1500 pg/mL | Amount of HIV-p24 antigen (HIV; SBA 10 µg/ml, cells as infected with the SBA-pretreated HIV): 1240 pg/mL | Amount of HIV-p24 antigen (HIV; SBA 50 µg/ml, cells as infected with HIV): 1400 pg/mL | Amount of HIV-p24 antigen (HIV; SBA 50 µg/ml, cells as infected with the SBA-pretreated HIV): 1520 pg/mL | inhibition of the production of the HIV antigen (in words) (HIV; SBA 100 µg/ml, PHA-activated PBMC blast cells infested with HIV): exhibited an effective activity inhibitory to the production of the HIV antigen | Amount of HIV-p24 antigen (HIV; SBA 100 µg/ml, cells as infected with HIV): 380 pg/mL | Amount of HIV-p24 antigen (HIV; SBA 100 µg/ml, cells as infected with the SBA-pretreated HIV): 1430 pg/mL | IC50 (HIV-1 (HTLV-IIIB strain); Human immunodeficiency virus 1, IIIB, U1 cells incubated in the presence of TPA, read-out: concentration of SBA required to achieve 50% inhibition of the replication of the HIV viral particles): ~400 µg/mL | Rate (%) of occurrence of HIV-1 positive cells (HIV-1 (HTLV-IIIB strain); SBA 25 µg/ml, TPA (1 ng/ml) was added): 26% | Rate (%) of occurrence of HIV-1 positive cells (HIV-1 (HTLV-IIIB strain); SBA 25 µg/ml, TPA was not added): 3% | Rate (%) of occurrence of HIV-1 positive cells (HIV-1 (HTLV-IIIB strain); SBA 50 µg/ml, TPA (1 ng/ml) was added): 21% | Rate (%) of occurrence of HIV-1 positive cells (HIV-1 (HTLV-IIIB strain); SBA 50 µg/ml, TPA was not added): 2% | Rate (%) of occurrence of HIV-1 positive cells (HIV-1 (HTLV-IIIB strain); SBA 100 µg/ml, TPA (1 ng/ml) was added): 16% | Rate (%) of occurrence of HIV-1 positive cells (HIV-1 (HTLV-IIIB strain); SBA 100 µg/ml, TPA was not added): 2% | Rate (%) of occurrence of HIV-1 positive cells (HIV-1 (HTLV-IIIB strain); SBA 200 µg/ml, TPA (1 ng/ml) was added): 14% | Rate (%) of occurrence of HIV-1 positive cells (HIV-1 (HTLV-IIIB strain); SBA 200 µg/ml, TPA was not added): 3% | Rate (%) of occurrence of HIV-1 positive cells (HIV-1 (HTLV-IIIB strain); SBA 400 µg/ml, TPA (1 ng/ml) was added): 12% | Rate (%) of occurrence of HIV-1 positive cells (HIV-1 (HTLV-IIIB strain); SBA 400 µg/ml, TPA was not added): 3% | Rate (%) of occurrence of HIV-1 positive cells (HIV-1 (HTLV-IIIB strain); SBA 800 µg/ml, TPA (1 ng/ml) was added): 8% | Rate (%) of occurrence of HIV-1 positive cells (HIV-1 (HTLV-IIIB strain); SBA 800 µg/ml, TPA was not added): 4%
